Earlier results on two compounds are cited in patent US20150065582A1, “Orally Dissolving Formulations of Memantine” (Forest Laboratories Holdings Limited, priority 2006, published 2015).

Counter-ions that a name gives are not always drawn.

The conditions of series [1]: oral administration of immediate release tablets.

As for `CC12CC3CC(C)(C1)CC(N)(C3)C2` [Memantine HCl], the “solubility (classification)” value was “highly soluble”.
For `CC12CC3CC(C)(C1)CC(N)(C3)C2` [memantine, 1-amino-3,5-dimethyl adamantane], the absolute bioavailability entry in series [1] is “approximately 100%”.
